Results from paper PMC4210147, “Sequence-Specific Dimerization of a Transmembrane Helix in Amphipol A8-35” (PLoS ONE, 2014).

What was measured:
human GpA TM domain [1] = molecular target: T1, human GpA TM domain (Homo sapiens, UniProt P02724); assay: FRET kinetics of exchange of GpA TM peptides between particles/micelles; type: binding; settings: for amplitude of first (fast) phase / amplitude of second (slow) phase / exchange rate constant, first (fast) phase / exchange rate constant, second (slow) phase: double-exponential fit
T1 construct: purchased Peptide Specialty Laboratories, Heidelberg, Germany; host or cells: chemical synthesis (custom peptide)
T1 sequence (P02724 88-120 limits assumed) 1: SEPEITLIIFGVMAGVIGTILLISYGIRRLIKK
T1 sequence (P02724 88-120 limits assumed) 2: T1 sequence (P02724 88-120 limits assumed) 1
Description: (§1) For Förster resonance energy transfer (FRET) measurements, equal concentrations of FL- and TAMRA-labeled GpA TM domains were used. Concentrations of the peptide stock solutions were determined from absorbance measurements on a Perkin Elmer Lambda 35 UV/VIS spectrophotometer. In all experiments, we used 0.25 µM for each of the two labeled GpA peptides. Peptides dissolved in TFE and A8-35 dissolved in ethanol were mixed, and organic solvents were removed under a gentle stream of nitrogen gas. Residual solvent traces were removed by vacuum desiccation overnight. The dried peptide/polymer film was then hydrated in 10 mM HEPES buffer (pH 7.4) containing 150 mM NaCl.
(§2) After at least 2 h of incubation at 37°C and 10 min of centrifugation at 16,000 g, steady-state fluorescence measurements were performed with the supernatant at 25°C on a Horiba Fluoromax 4 system with both excitation and emission slits at 3 nm. The excitation wavelength was set at 439 nm, and emission spectra were recorded from 480 to 650 nm. For FRET measurements with SDS, several concentrations of SDS, both below and above the CMC determined for the given buffer conditions, were used, and hydrated samples were incubated overnight.
(§3) Energy transfer E was calculated using the donor fluorescence intensities at 525 nm in presence and absence of acceptor according to [drawing 1] (1)
To investigate the effect of A8-35 on the GpA dimer stability in greater detail, we next performed kinetic measurements and determined the exchange rates of GpA TM helices between various polymer particles after reconstitution. Upon addition of an excess of a competing surfactant, such as free APols, detergents or phospholipids, MPs can be released from preformed complexes with APols, although at very slow dissociation rates, and e.g. integrate into detergent micelles, [37]-[39]. To test this, donor- and acceptor-labeled GpA peptides were individually solubilized in 20 µM A8-35 and incubated at 37°C for at least 2 h. Next, A8-35-solubilized donor and acceptor peptides were mixed in a 1∶1 ratio, and fluorescence emission spectra were recorded every 10 min for about 17 h (Figure 3A). As a control necessary for calculation of energy transfer, this measurement was also performed with solely the donor sample, for which no changes in fluorescence intensity were observed. […] To compare the exchange rates measured in APols with rates determined in micellar environments, the same experiment was performed in 5 mM DDM micelles (Figure 3C).
Figure 3 Kinetics of the exchange of GpA TM peptides between APol aggregates. Donor- and acceptor-labelled GpA TM (each 0.25 µM) domains were separately solubilized in 20 µM APol at a final polymer/peptide ratio of 40∶1. (A) After incubation at 37°C, donor and acceptor were mixed, and emission spectra (normalized at 525 nm) were recorded every 10 min over a time period of 17 h at 25°C. (B) The energy transfer increased over hours to the level determined by steady-state FRET measurements due to mixing of donor- and acceptor-labelled peptides.

human GpA TM domain [2] = molecular target: T1, human GpA TM domain; assay: FRET at different acceptor mole ratios, stoichiometry of GpA TM domain association; type: binding; settings: constant total peptide, linear dependence, n = 2
Description: as §1, with “For Förster resonance energy transfer (FRET) measurements, equal concentrations of FL- and TAMRA-labeled GpA TM domains were used.” left out, “In all experiments, we used 0.25 µM for each of the two labeled GpA peptides.” left out
as §2, §3
Besides formation of GpA dimers, the recorded energy transfer might, in principle, also originate from formation of higher-ordered oligomeric structures, such as trimers or tetramers, or even from unspecific peptide aggregation. […]

GpA TM helix dimer = settings: ref [24], listed as GpA dimer; cited from earlier work
From the text: Thermal denaturation of MPs often leads to irreversible aggregation of the MP, and guanidine hydrochloride and urea, which are frequently used in unfolding studies involving soluble proteins, do typically not denature the TM regions of MPs. This is why the thermodynamic stability of integral MPs within membrane-mimetic systems is often assessed by titrating increasing concentrations of the anionic detergent SDS to MPs dissolved in a mild detergent, such as DDM [24], [40]-[44]. SDS is able to form mixed micelles with other detergents typically used for MP solubilization. […] This indicates a strong destabilizati ...

Question: For `CC[C@H](C)[C@H](NC(=O)CNC(=O)[C@H](Cc1ccc(O)cc1)NC(=O)[C@H](CO)NC(=O)[C@@H](NC(=O)[C@H](CC(C)C)NC(=O)[C@H](CC(C)C)NC(=O)[C@@H](NC(=O)[C@@H](NC(=O)CNC(=O)[C@@H](NC(=O)[C@@H](NC(=O)CNC(=O)[C@H](C)NC(=O)[C@H](CCSC)NC(=O)[C@@H](NC(=O)CNC(=O)[C@H](Cc1ccccc1)NC(=O)[C@@H](NC(=O)[C@@H](NC(=O)[C@H](CC(C)C)NC(=O)[C@@H](NC(=O)[C@@H](NC(=O)[C@H](CCC(=O)O)NC(=O)[C@@H]1CCCN1C(=O)[C@H](CCC(=O)O)NC(=O)[C@@H](N)CO)[C@@H](C)CC)[C@@H](C)O)[C@@H](C)CC)[C@@H](C)CC)C(C)C)C(C)C)[C@@H](C)CC)[C@@H](C)O)[C@@H](C)CC)[C@@H](C)CC)C(=O)N[C@@H](CCCNC(=N)N)C(=O)N[C@@H](CCCNC(=N)N)C(=O)N[C@@H](CC(C)C)C(=O)N[C@H](C(=O)N[C@@H](CCCCN)C(=O)N[C@@H](CCCCN)C(=O)O)[C@@H](C)CC` [GpA TM domain], which “amplitude of first (fast) phase” value (human GpA TM domain [1]; 5 mM DDM micelles) is on record?
Answer: 13.3

Question: What about the “amplitude of second (slow) phase” value (human GpA TM domain [1]; 5 mM DDM micelles) of the same molecule?
Answer: 15.6

Question: And the “exchange rate constant, first (fast) phase” value (human GpA TM domain [1]; 5 mM DDM micelles)?
Answer: 41.5 h⁻¹

Question: What about the “exchange rate constant, second (slow) phase” value (human GpA TM domain [1]; 5 mM DDM micelles) of the same molecule?
Answer: 5.8 h⁻¹

Question: And the “duration of peptide exchange” value (human GpA TM domain [1]; 5 mM DDM micelles, listed as GpA TM peptides)?
Answer: completed after some dozen minutes

Question: What about the energy transfer (human GpA TM domain [1]; 17 h after 1:1 mixing of donor- and acceptor-labeled peptides (each 0.25 µM) in 20 µM A8-35, 25°C) of the same molecule?
Answer: ~35%

Question: What about the “dimer fraction after exchange” value (human GpA TM domain [1]; 17 h after mixing, from energy transfer, 20 µM A8-35, 25°C) of the same molecule?
Answer: ~0.7

Question: What about the “duration of peptide exchange” value (human GpA TM domain [1]; A8-35 (20 µM)) of the same molecule?
Answer: proceeded for several hours

Question: What about the “amplitude of first (fast) phase” value (human GpA TM domain [1]; A8-35 (20 µM), 25°C) of the same molecule?
Answer: 8.7

Question: And the “amplitude of second (slow) phase” value (human GpA TM domain [1]; A8-35 (20 µM), 25°C)?
Answer: 12.4

Question: And the “exchange rate constant, first (fast) phase” value (human GpA TM domain [1]; A8-35 (20 µM), 25°C)?
Answer: 2.2 h⁻¹

Question: What about the “exchange rate constant, second (slow) phase” value (human GpA TM domain [1]; A8-35 (20 µM), 25°C) of the same molecule?
Answer: 0.17 h⁻¹

Question: What about the “stoichiometry of association (energy transfer vs acceptor mole fraction)” value (human GpA TM domain [2]; 5 µM A8-35) of the same molecule?
Answer: exclusive dimer formation

Question: And the “stoichiometry of association (energy transfer vs acceptor mole fraction)” value (human GpA TM domain [2]; 50 µM A8-35)?
Answer: exclusive dimer formation

Question: What about the “dissociation of GpA dimer in mixed DDM/SDS micelles” value (GpA TM helix dimer) of the same molecule?
Answer: completely unfolded
